Measured values as given in ChEMBL document CHEMBL3862010, “N-Arylsulfonyl-α-amino carboxamides are potent and selective inhibitors of the chemokine receptor CCR10 that show efficacy in the murine DNFB model of contact hypersensitivity” (Bioorg Med Chem Lett, 2016).

Experiments:
[1] = target: T1, C-C chemokine receptor type 10 (Homo sapiens, UniProt P46092); experiment: Antagonist activity at human CCR10 expressed in CHOK1 cells coexpressing aequorin/Galphaq assessed as inhibition of human CCL27-dependent calcium flux in presence of coelenterazine H by chemiluminescence assay; format: functional, cell-based, CHO-K1; conditions: read-out: pIC50 (converted)
T1 sequence (P46092 whole entry): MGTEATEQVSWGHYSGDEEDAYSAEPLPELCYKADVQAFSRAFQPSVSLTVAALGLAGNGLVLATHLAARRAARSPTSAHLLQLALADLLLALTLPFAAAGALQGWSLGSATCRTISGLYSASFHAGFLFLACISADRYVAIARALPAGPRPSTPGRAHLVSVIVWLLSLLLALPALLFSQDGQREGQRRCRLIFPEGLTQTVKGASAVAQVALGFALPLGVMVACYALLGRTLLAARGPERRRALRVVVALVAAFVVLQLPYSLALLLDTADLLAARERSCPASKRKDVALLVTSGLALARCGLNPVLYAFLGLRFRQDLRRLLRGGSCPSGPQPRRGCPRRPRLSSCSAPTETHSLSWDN

[2] = target: C-X-C chemokine receptor type 3 (Homo sapiens, UniProt P49682); experiment: Antagonist activity at human CXCR3 assessed as inhibition of IP10-induced calcium flux; format: functional
Sequence of C-X-C chemokine receptor type 3 (P49682 whole entry): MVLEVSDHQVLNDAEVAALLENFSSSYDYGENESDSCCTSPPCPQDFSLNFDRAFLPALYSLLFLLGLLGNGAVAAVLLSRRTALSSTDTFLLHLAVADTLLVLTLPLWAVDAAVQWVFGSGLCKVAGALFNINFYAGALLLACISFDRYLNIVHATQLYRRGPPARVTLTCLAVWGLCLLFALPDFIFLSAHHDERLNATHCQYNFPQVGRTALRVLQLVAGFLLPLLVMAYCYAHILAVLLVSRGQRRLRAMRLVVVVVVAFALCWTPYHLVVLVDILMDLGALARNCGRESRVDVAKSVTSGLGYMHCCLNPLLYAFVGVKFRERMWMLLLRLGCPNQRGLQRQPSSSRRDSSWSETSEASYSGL

[3] = target: T1, C-C chemokine receptor type 10; experiment: Antagonist activity at human CCR10 expressed in CHOK1 cells coexpressing aequorin/Galphaq assessed as inhibition of CCL27-dependent calcium flux in presence of coelenterazine H by FLIPR assay; format: functional, cell-based, CHO-K1
[4] = target: T1, C-C chemokine receptor type 10; experiment: Antagonist activity at human CCR10 expressed in CHOK1 cells coexpressing aequorin/Galphaq assessed as inhibition of human CCL28-dependent calcium flux by FLIPR assay; format: functional, cell-based, CHO-K1
[5] = Half life in mouse liver microsomes; format: ADME
[6] = target: T1, C-C chemokine receptor type 10; experiment: Antagonist activity at human CCR10 expressed in HEK cell membranes assessed as inhibition of human CCL27-dependent europium-labeled GTP binding; set-up: species or system HEK293
[7] = Clearance in mouse liver microsomes relative to hepatic blood flow; format: ADME; conditions: read-out: CLH
[8] = target: T1, C-C chemokine receptor type 10; experiment: Antagonist activity at human CCR10 expressed in HEK cells assessed as inhibition of human CCL27-dependent cAMP production; format: functional, cell-based, HEK293
[9] = target: C-C chemokine receptor type 2 (Homo sapiens, UniProt P41597); experiment: Antagonist activity at human CCR2 assessed as inhibition of MCP1-induced calcium flux; format: functional
Sequence of C-C chemokine receptor type 2 (P41597 whole entry): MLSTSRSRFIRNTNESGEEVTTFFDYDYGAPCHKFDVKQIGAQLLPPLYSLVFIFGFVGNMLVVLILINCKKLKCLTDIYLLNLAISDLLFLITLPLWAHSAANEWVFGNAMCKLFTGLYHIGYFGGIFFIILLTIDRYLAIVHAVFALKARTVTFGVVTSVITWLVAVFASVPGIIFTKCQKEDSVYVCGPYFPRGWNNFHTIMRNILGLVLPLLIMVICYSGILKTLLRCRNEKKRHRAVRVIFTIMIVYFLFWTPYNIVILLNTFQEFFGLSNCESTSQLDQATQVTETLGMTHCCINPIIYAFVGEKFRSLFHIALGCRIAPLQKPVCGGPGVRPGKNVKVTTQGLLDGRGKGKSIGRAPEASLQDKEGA

[10] = target: Histamine H4 receptor (Homo sapiens, UniProt Q9H3N8); experiment: Antagonist activity at human histamine H4 receptor assessed as inhibition of histamine-induced calcium flux; format: functional
Sequence of Histamine H4 receptor (Q9H3N8 whole entry): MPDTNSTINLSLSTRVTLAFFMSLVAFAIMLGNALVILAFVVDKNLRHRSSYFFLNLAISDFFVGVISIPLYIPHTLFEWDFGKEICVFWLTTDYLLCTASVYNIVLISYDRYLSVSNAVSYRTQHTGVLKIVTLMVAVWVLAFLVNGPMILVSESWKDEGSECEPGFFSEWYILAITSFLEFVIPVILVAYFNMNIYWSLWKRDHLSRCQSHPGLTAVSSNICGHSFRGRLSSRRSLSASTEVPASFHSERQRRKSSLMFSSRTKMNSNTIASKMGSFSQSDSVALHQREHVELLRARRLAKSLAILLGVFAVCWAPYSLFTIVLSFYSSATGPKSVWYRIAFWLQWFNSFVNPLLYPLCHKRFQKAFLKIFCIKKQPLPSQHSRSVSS

[11] = target: C-C chemokine receptor type 5 (Homo sapiens, UniProt P51681); experiment: Antagonist activity at human CCR5 assessed as inhibition of RANTES-induced calcium flux; format: functional
Sequence of C-C chemokine receptor type 5 (P51681 whole entry): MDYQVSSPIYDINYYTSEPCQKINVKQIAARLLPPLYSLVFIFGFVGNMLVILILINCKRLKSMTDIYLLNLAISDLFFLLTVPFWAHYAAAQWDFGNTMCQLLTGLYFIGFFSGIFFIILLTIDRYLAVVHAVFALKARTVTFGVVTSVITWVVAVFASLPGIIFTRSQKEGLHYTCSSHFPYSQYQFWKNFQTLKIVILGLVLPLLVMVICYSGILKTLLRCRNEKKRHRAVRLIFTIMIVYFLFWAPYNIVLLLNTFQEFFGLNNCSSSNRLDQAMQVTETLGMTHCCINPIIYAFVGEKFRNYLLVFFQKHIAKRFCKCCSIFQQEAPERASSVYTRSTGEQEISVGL

[12] = target: C-X-C chemokine receptor type 2 (Homo sapiens, UniProt P25025); experiment: Antagonist activity at human CXCR2 assessed as inhibition of GROalpha-induced calcium flux; format: functional
Sequence of C-X-C chemokine receptor type 2 (P25025 whole entry): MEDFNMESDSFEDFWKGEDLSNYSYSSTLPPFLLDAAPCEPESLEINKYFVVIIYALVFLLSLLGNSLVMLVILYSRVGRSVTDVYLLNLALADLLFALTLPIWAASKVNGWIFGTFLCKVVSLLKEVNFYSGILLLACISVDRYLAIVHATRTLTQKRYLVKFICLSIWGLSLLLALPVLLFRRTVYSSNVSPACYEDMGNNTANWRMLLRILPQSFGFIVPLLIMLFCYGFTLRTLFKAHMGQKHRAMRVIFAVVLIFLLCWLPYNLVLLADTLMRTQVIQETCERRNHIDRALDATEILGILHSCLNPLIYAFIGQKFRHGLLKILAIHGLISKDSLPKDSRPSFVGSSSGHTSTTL

[13] = target: T1, C-C chemokine receptor type 10; experiment: Antagonist activity at human CCR10 expressed in CHOK1 cells coexpressing aequorin/Galphaq assessed as inhibition of human CCL28-dependent calcium flux by chemiluminescence assay; format: functional, cell-based, CHO-K1
[14] = target: C-C chemokine receptor type 1 (Homo sapiens, UniProt P32246); experiment: Antagonist activity at human CCR1 assessed as inhibition of MIP1alpha-induced calcium flux; format: functional
Sequence of C-C chemokine receptor type 1 (P32246 whole entry): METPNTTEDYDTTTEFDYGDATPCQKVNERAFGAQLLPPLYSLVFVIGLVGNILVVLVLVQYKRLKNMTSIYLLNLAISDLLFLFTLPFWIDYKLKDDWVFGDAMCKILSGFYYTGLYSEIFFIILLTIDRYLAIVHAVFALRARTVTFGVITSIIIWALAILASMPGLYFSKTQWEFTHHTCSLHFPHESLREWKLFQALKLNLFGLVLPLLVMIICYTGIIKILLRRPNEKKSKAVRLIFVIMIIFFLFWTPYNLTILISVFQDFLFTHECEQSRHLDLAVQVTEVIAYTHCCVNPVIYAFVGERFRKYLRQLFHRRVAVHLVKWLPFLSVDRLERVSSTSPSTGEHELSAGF

[15] = target: T2, C-C chemokine receptor type 10 (Mus musculus, UniProt Q9JL21); experiment: Antagonist activity at mouse CCR10 expressed in CHOK1 cells coexpressing aequorin/Galphaq assessed as inhibition of CCL27-dependent calcium flux in presence of coelenterazine H by chemiluminescence assay; format: functional, cell-based, CHO-K1
T2 sequence (Q9JL21 whole entry): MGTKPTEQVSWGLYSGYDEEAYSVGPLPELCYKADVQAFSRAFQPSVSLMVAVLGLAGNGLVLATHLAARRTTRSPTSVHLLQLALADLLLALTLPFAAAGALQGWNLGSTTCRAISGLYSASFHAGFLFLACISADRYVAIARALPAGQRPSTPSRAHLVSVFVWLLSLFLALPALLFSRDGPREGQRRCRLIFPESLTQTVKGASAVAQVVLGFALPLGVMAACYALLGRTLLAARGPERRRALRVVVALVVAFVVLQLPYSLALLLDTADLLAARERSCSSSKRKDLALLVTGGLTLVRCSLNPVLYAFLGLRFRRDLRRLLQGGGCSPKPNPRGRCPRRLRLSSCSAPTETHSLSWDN

[16] = Plasma concentration in Balb/C mouse at 100 mg/kg, ip bid measured after 1 hr; format: ADME, organism-based; conditions: in vivo
[17] = Time at which plasma concentration stays near or above in vitro murine IC50 level in Balb/C mouse at 100 mg/kg, ip bid; format: ADME, organism-based; conditions: in vivo
[18] = tested on: Mus musculus; experiment: Antiinflammatory activity in Balb/C mouse model of contact hypersensitivity assessed as inhibition of DNFB-stimulated ear swelling at 100 mg/kg, ip bid administered at 0 and 8 hrs measured 24 hrs post DNFB stimulation; format: functional
[19] = Protein binding in Balb/C mouse plasma at 100 mg/kg, ip bid; format: ADME, organism-based; conditions: Balb/C, plasma, read-out: PPB
[20] = target: C-C chemokine receptor type 6 (Homo sapiens, UniProt P51684); experiment: Antagonist activity at human CCR6 assessed as inhibition of CCL20/MIP-3alpha-induced calcium flux; format: functional
Sequence of C-C chemokine receptor type 6 (P51684 whole entry): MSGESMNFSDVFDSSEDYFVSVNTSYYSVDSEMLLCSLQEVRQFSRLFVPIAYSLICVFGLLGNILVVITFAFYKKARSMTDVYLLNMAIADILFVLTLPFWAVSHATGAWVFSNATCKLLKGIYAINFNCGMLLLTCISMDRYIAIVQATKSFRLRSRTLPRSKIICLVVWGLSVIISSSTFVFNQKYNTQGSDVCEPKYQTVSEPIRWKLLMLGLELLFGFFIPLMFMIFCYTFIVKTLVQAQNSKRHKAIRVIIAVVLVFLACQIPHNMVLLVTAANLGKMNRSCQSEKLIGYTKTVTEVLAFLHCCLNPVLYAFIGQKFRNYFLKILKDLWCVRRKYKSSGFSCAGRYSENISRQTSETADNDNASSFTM

[21] = Plasma concentration in Balb/C mouse at 100 mg/kg, ip bid measured after 7 hrs; format: ADME, organism-based
[22] = Plasma concentration in Balb/C mouse at 30 mg/kg, ip bid measured after 1 hr; format: ADME, organism-based; conditions: Balb/C, plasma
[23] = target: D(1A) dopamine receptor (Homo sapiens) (UniProt P21728); experiment: Binding affinity to human dopamine D1 receptor at 10 uM relative to control
[24] = target: T1, C-C chemokine receptor type 10; experiment: Displacement of human CCL27-Fc from CCR10 expressed in HEK cell membranes by immunochemical binding analysis; set-up: species or system HEK293
[25] = target: Adrenergic receptor alpha-1 (Rattus norvegicus) (UniProt P15823+P23944+P43140); experiment: Binding affinity to rat adrenergic alpha1 receptor at 10 uM relative to control
[26] = species: Rattus norvegicus; experiment: Binding affinity to rat muscarinic acetylcholine receptor at 10 uM relative to control
[27] = species: Rattus norvegicus; experiment: Binding affinity to rat GABA-B receptor at 10 uM relative to control
[28] = species: Rattus norvegicus; experiment: Binding affinity to rat 5-HT1 receptor at 10 uM relative to control
[29] = target: Type-1 angiotensin II receptor (Homo sapiens) (UniProt P30556); experiment: Binding affinity to human AT1 receptor at 10 uM relative to control
Sequence of Type-1 angiotensin II receptor (Homo sapiens) (P30556 whole entry): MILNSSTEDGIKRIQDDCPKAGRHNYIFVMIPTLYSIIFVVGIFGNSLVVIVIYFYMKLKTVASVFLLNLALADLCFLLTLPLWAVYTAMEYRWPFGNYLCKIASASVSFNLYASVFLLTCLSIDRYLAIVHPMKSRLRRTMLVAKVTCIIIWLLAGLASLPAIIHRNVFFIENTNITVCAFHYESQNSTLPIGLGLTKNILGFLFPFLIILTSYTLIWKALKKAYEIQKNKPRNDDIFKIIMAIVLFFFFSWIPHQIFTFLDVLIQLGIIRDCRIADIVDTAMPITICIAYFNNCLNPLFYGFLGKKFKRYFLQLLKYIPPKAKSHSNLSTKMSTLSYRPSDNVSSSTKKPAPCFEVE

[30] = species: Homo sapiens; experiment: Binding affinity to human dopamine D4.2 receptor at 10 uM relative to control
[31] = target: 5-hydroxytryptamine receptor 4 (Cavia porcellus) (UniProt O70528); experiment: Binding affinity to guinea pig 5-HT4 receptor at 10 uM relative to control
Sequence of 5-hydroxytryptamine receptor 4 (Cavia porcellus) (O70528 whole entry): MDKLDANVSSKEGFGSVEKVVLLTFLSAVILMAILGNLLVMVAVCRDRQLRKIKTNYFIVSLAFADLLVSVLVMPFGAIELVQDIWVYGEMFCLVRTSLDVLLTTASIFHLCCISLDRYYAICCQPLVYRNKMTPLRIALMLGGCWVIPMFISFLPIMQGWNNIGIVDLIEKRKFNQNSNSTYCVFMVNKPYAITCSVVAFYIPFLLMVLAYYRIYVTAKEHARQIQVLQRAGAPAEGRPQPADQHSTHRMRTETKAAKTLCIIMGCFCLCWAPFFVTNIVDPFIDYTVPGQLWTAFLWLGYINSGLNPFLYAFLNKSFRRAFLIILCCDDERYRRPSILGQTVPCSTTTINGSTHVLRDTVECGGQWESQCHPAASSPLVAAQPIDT

[32] = target: D(2) dopamine receptor (Homo sapiens) (UniProt P14416); experiment: Binding affinity to human dopamine D2L receptor at 10 uM relative to control
[33] = target: Histamine H2 receptor (Homo sapiens) (UniProt P25021); experiment: Binding affinity to human histamine H2 receptor at 10 uM relative to control
Sequence of Histamine H2 receptor (Homo sapiens) (P25021 whole entry): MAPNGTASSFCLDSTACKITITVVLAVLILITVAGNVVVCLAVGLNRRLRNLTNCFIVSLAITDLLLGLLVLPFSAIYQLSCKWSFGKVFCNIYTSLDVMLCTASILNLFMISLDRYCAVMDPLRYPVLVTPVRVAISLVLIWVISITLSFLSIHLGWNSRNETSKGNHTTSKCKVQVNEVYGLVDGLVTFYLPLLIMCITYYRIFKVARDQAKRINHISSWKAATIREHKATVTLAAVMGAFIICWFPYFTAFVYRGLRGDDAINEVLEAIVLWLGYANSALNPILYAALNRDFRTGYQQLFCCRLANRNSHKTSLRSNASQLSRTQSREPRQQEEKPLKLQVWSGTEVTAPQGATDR

[34] = target: 5-hydroxytryptamine receptor 3A (Homo sapiens) (UniProt P46098); experiment: Binding affinity to human 5-HT3 receptor at 10 uM relative to control
[35] = species: Homo sapiens; experiment: Binding affinity to human nicotinic acetylcholine receptor at 10 uM relative to control
[36] = target: 5-hydroxytryptamine receptor 2A (Rattus norvegicus) (UniProt P14842); experiment: Binding affinity to rat 5-HT2 receptor at 10 uM relative to control
Sequence of 5-hydroxytryptamine receptor 2A (Rattus norvegicus) (P14842 whole entry): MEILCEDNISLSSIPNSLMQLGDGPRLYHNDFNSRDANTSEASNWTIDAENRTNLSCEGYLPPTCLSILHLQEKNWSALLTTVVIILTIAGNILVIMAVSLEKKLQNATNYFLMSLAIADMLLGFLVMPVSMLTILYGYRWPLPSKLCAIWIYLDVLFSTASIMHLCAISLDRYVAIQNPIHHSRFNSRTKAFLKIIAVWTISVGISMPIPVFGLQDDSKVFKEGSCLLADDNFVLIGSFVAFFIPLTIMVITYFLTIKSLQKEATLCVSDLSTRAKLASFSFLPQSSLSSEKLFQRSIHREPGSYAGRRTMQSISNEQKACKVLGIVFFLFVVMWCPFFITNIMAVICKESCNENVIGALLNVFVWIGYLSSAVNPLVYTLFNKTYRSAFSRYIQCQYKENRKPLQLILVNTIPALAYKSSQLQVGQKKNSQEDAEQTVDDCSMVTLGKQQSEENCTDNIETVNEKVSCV

[37] = target: Calcitonin gene-related peptide type 1 receptor (Homo sapiens) (UniProt Q16602); experiment: Binding affinity to human CGRP1 receptor at 10 uM relative to control
Sequence of Calcitonin gene-related peptide type 1 receptor (Homo sapiens) (Q16602 whole entry): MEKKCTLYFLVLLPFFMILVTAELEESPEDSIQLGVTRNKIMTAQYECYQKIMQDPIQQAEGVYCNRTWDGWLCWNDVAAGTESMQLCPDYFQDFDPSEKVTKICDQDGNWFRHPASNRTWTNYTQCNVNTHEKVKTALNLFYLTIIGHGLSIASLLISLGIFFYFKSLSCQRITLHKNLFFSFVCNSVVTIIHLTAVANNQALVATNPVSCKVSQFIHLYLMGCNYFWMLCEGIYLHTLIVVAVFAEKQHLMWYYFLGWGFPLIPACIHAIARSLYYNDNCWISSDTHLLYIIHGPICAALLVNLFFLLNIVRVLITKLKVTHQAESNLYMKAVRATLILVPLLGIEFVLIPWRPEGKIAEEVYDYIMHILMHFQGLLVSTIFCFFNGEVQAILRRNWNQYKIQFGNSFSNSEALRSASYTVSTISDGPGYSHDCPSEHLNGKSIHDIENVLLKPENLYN

[38] = target: Adrenergic receptor beta (Rattus norvegicus) (UniProt P18090+P10608+P26255); experiment: Binding affinity to rat adrenergic beta receptor at 10 uM relative to control
[39] = target: Histamine H1 receptor (Homo sapiens) (UniProt P35367); experiment: Binding affinity to human histamine H1 receptor at 10 uM relative to control
[40] = target: D(3) dopamine receptor (Homo sapiens) (UniProt P35462); experiment: Binding affinity to human dopamine D3 receptor at 10 uM relative to control
[41] = target: T1, C-C chemokine receptor type 10; experiment: Reversible inhibition of human CCL27-Fc binding to CCR10 expressed in HEK cell membranes by immunochemical binding assay; set-up: species or system HEK293
[42] = target: B2 bradykinin receptor (Homo sapiens) (UniProt P30411); experiment: Binding affinity to human B2 bradykinin receptor at 10 uM relative to control
[43] = target: Adrenergic receptor alpha-2 (Rattus norvegicus) (UniProt P22086+P19328+P22909); experiment: Binding affinity to rat adrenergic alpha2 receptor at 10 uM relative to control

Compound `CC1CCN(C(=O)C(CCn2cccc2C#N)NS(=O)(=O)c2cccc3[nH]ccc23)CC1` (racemic) has an IC50 [1] of 2 nM, an IC50 [2] of over 10000 nM and an IC50 [3] of 0.398 nM. For the same compound, the IC50 [4] was 1.26 nM, the half-life [5] was under 3 min and the IC50 [6] was 10 nM. For the same compound, the hepatic extraction ratio [7] was over 0.88, the IC50 [8] was 25.1 nM and the IC50 [9] was over 10000 nM. The IC50 [10] was over 10000 nM, the IC50 [11] was over 10000 nM and the IC50 [12] was over 10000 nM. The IC50 [13] was 1 nM, the IC50 [14] was over 10000 nM and the IC50 [15] was 63.1 nM.

In the case of `CC1CCN(C(=O)C(CCn2cccc2C#N)NS(=O)(=O)c2cccc3[nH]ccc23)CC1` (stereo in doubt; form 1), the IC50 [1] is reported as 1 nM, the concentration [16] is reported as 7.6 µM and the Time [17] is reported as “<= 8 hr”. For the same compound, the inhibition in vivo at 100 mg/kg [18] was 75%, the fraction unbound [19] was 0.01 and the IC50 [20] was over 10000 nM. The concentration at 7 h [21] was 0.2 µM, the concentration at 1 h [22] was 3.7 µM and the IC50 [15] was 25.1 nM.

With `CC1CCN(C(=O)C(CCn2cccc2C#N)NS(=O)(=O)c2cc(Cl)c(N)c(Cl)c2)CC1` (centres undefined) the Activity [23] was under 10%, the IC50 [24] was 3.4 nM and the Activity [25] was under 10%. For the same compound, the IC50 [1] was 20 nM, the IC50 [2] was over 10000 nM and the IC50 [3] was 2 nM. The Activity [26] was 11%, the Activity [27] was 10% and the Activity [28] was 11%. The IC50 [4] was 12.6 nM, the Activity [29] was under 10% and the Activity [30] was under 10%. It also gave an Activity [31] of 28%, an IC50 [6] of 20 nM and an IC50 [8] of 158 nM. For the same compound, the Activity [32] was under 10%, the Activity [33] was 12% and the IC50 [9] was over 10000 nM. For the same compound, the Activity [34] was under 10%, the IC50 [10] was over 10000 nM and the Activity [35] was under 10%. For the same compound, the Activity [36] was under 10%, the Activity [37] was under 10% and the IC50 [11] was over 10000 nM. For the same compound, the Activity [38] was 12%, the Activity [39] was under 10% and the IC50 [12] was over 10000 nM. The IC50 [20] was over 10000 nM, the IC50 [13] was 12.6 nM and the Activity [40] was 11%. It also gave an IC50 [41] of 3.4 nM, an Activity [42] of under 10% and an IC50 [14] of over 10000 nM. The Activity [43] was under 10% and the IC50 [15] was 1580 nM.
